Earlier results in patent US20140005605A1, “USE OF QUORUM SENSING INHIBITORS AND BIOFILM DISPERSING AGENTS FOR CONTROLLING BIOFILM-ASSOCIATED IMPLANTABLE MEDICAL DEVICE RELATED INFECTIONS” (priority 2012, published 2014).

Legend:
[1] = test system: biofilms formed by Pseudomonas aeruginosa
[2] = test system: biofilms formed by Staphylococcus aureus
[3] = test system: Pseudomonas aeruginosa; details: mice treated with the QSI; promoted clearance by the murine immune system

SMILES | effectiveness against biofilms [1] | effectiveness against biofilms [2] | biofilm formation [3]
CCCCCCC/C=C\C(=O)O [cis-2-decanoic acid] | effective | effective | –
O=[N+]([O-])c1cc[n+]([O-])cc1 [4-nitro-pyridine-N-oxide] | effective | effective | –
O=C1C=C(Br)/C(=C/Br)O1 [furanone C-30] | – | – | inhibited biofilm formation
